Laboratory results published in article PMC6120666 (The EMBO Journal, 2018).

Legend:
Experiment in all cases: Drug affinity chromatography with c-ponatinib and LC-MS/MS (ponatinib interactome)
Assay type in all cases: binding
[1] = target: T1, proteins of U2OS cell lysate (Homo sapiens, UniProt O14818); conditions: PSMA7;PSMA8, Proteasome subunit alpha type-7
T1 construct: Proteins enriched by c-ponatinib from U2OS cell lysate; endogenous in cells; host or cells: U2OS cell lysate
Summary of the method: (§1)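 U2OS cell lysate in NP-40 lysis buffer (2 mg protein per pulldown) was incubated with amine-derivatized NHS beads for 2 h at 4 °C. Bound proteins were washed, eluted with 100 mM formic acid, reduced, alkylated and trypsin-digested, then identified by nano-UPLC–MS/MS on Orbitrap instruments with a 60 min gradient.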

[2] = target: T2, proteins of U2OS cell lysate (Homo sapiens, UniProt P09669); conditions: COX6C, Cytochrome c oxidase subunit 6C
T2 construct: Proteins enriched by c-ponatinib from U2OS cell lysate; endogenous in cells; host or cells: U2OS cell lysate
T2 sequence (P09669 whole entry): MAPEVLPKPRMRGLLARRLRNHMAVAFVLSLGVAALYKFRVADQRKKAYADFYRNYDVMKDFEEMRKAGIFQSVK
Summary of the method: as §1

[3] = target: T3, proteins of U2OS cell lysate (Homo sapiens, UniProt P15880); conditions: RPS2, 40S ribosomal protein S2
T3 construct: Proteins enriched by c-ponatinib from U2OS cell lysate; endogenous in cells; host or cells: U2OS cell lysate
Summary of the method: as §1

[4] = target: T4, proteins of U2OS cell lysate (Homo sapiens, UniProt P25705); conditions: ATP5A1, ATP synthase subunit alpha, mitochondrial
T4 construct: Proteins enriched by c-ponatinib from U2OS cell lysate; endogenous in cells; host or cells: U2OS cell lysate
T4 sequence (P25705 44-553): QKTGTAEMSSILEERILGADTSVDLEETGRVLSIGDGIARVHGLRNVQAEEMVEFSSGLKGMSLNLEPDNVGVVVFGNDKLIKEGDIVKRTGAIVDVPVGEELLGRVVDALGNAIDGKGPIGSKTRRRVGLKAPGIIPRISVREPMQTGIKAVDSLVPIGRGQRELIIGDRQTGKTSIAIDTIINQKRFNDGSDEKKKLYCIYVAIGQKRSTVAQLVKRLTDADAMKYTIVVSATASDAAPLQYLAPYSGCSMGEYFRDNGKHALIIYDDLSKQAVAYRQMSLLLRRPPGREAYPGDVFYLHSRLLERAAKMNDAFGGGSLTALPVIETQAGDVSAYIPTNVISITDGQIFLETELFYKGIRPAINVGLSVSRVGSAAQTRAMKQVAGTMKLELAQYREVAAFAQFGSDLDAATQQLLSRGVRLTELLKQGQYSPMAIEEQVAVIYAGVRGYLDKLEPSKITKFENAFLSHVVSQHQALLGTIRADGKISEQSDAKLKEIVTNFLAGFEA
Summary of the method: as §1

[5] = target: T5, proteins of U2OS cell lysate (Homo sapiens, UniProt P34913); conditions: EPHX2, Bifunctional epoxide hydrolase 2
T5 construct: Proteins enriched by c-ponatinib from U2OS cell lysate; endogenous in cells; host or cells: U2OS cell lysate
T5 sequence (P34913 whole entry): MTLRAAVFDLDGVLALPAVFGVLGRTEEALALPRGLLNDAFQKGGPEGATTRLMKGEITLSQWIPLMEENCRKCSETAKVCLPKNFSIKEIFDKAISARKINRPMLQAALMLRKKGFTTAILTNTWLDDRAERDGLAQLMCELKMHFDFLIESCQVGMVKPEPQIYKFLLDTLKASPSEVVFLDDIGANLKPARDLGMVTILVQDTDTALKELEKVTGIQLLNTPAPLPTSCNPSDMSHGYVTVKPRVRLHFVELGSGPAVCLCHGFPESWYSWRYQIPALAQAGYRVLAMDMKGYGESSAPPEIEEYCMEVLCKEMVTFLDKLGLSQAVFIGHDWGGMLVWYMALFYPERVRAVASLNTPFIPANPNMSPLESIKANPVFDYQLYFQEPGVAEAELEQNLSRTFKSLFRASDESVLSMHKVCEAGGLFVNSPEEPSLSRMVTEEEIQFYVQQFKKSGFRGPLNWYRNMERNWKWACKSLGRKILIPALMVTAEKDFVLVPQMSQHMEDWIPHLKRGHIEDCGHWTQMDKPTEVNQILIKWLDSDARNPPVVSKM
Summary of the method: as §1

[6] = target: T6, proteins of U2OS cell lysate (Homo sapiens, UniProt P49207); conditions: RPL34, 60S ribosomal protein L34
T6 construct: Proteins enriched by c-ponatinib from U2OS cell lysate; endogenous in cells; host or cells: U2OS cell lysate
Summary of the method: as §1

[7] = target: T7, proteins of U2OS cell lysate (Homo sapiens, UniProt P49756); conditions: RBM25, RNA-binding protein 25
T7 construct: Proteins enriched by c-ponatinib from U2OS cell lysate; endogenous in cells; host or cells: U2OS cell lysate
T7 sequence (P49756 whole entry): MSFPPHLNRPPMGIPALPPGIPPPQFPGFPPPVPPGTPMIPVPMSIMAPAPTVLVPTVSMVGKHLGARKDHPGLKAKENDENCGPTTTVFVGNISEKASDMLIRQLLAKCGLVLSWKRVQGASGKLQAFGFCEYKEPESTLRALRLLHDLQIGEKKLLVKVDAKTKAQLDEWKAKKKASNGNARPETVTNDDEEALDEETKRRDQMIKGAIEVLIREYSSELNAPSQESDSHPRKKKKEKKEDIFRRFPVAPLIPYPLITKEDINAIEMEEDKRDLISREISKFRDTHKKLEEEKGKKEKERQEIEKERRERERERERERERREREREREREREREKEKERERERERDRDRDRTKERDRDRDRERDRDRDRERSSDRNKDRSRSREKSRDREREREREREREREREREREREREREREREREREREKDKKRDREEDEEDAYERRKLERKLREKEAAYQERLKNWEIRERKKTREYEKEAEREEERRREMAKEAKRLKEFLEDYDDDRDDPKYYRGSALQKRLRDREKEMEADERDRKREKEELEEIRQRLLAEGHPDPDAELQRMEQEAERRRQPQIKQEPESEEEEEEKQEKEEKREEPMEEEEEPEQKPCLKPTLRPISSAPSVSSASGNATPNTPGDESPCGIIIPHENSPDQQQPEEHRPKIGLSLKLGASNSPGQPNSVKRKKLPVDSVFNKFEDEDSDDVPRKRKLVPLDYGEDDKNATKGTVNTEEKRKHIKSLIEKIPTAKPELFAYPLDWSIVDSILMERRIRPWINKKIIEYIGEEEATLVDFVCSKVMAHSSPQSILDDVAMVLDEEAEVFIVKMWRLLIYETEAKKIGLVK
Summary of the method: as §1

[8] = target: T8, proteins of U2OS cell lysate (Homo sapiens, UniProt P60953); conditions: CDC42, Cell division control protein 42 homolog
T8 construct: Proteins enriched by c-ponatinib from U2OS cell lysate; endogenous in cells; host or cells: U2OS cell lysate
T8 sequence (P60953 whole entry): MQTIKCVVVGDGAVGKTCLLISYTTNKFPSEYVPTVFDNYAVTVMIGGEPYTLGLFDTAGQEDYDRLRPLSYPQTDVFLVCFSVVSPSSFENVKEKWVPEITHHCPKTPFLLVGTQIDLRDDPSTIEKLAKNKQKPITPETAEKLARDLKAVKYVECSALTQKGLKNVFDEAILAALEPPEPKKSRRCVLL
Summary of the method: as §1

[9] = target: T9, proteins of U2OS cell lysate (Homo sapiens, UniProt P61981); conditions: YWHAG, 14-3-3 protein gamma
T9 construct: Proteins enriched by c-ponatinib from U2OS cell lysate; endogenous in cells; host or cells: U2OS cell lysate
Summary of the method: as §1

[10] = target: T10, proteins of U2OS cell lysate (Homo sapiens, UniProt P62714); conditions: PPP2CB, Serine/threonine-protein phosphatase 2A catalytic subunit beta isoform
T10 construct: Proteins enriched by c-ponatinib from U2OS cell lysate; endogenous in cells; host or cells: U2OS cell lysate
T10 sequence (P62714 whole entry, canonical isoform): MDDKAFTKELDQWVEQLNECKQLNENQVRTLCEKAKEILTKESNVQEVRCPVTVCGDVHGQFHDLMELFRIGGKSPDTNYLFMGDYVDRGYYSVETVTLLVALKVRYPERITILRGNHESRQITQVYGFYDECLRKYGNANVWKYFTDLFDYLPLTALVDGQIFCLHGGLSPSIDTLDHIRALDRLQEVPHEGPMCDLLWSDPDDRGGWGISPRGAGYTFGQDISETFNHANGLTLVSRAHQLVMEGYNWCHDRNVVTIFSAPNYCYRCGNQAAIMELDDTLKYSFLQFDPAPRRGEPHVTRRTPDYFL
Summary of the method: as §1

[11] = target: T11, proteins of U2OS cell lysate (Homo sapiens, UniProt Q00325); conditions: SLC25A3, Phosphate carrier protein, mitochondrial
T11 construct: Proteins enriched by c-ponatinib from U2OS cell lysate; endogenous in cells; host or cells: U2OS cell lysate
Summary of the method: as §1

[12] = target: T12, proteins of U2OS cell lysate (Homo sapiens, UniProt Q0ZGT2); conditions: NEXN, Nexilin
T12 construct: Proteins enriched by c-ponatinib from U2OS cell lysate; endogenous in cells; host or cells: U2OS cell lysate
Summary of the method: as §1

[13] = target: T13, proteins of U2OS cell lysate (Homo sapiens, UniProt Q13418); conditions: ILK, Integrin-linked protein kinase
T13 construct: Proteins enriched by c-ponatinib from U2OS cell lysate; endogenous in cells; host or cells: U2OS cell lysate
Summary of the method: as §1

[14] = target: T14, proteins of U2OS cell lysate (Homo sapiens, UniProt Q14165); conditions: MLEC, Malectin
T14 construct: Proteins enriched by c-ponatinib from U2OS cell lysate; endogenous in cells; host or cells: U2OS cell lysate
Summary of the method: as §1

[15] = target: T15, proteins of U2OS cell lysate (Homo sapiens, UniProt Q69YQ0); conditions: SPECC1L, Cytospin-A
T15 construct: Proteins enriched by c-ponatinib from U2OS cell lysate; endogenous in cells; host or cells: U2OS cell lysate
Summary of the method: as §1

[16] = target: T16, proteins of U2OS cell lysate (Homo sapiens, UniProt Q9P2E9); conditions: RRBP1, Ribosome-binding protein 1
T16 construct: Proteins enriched by c-ponatinib from U2OS cell lysate; endogenous in cells; host or cells: U2OS cell lysate
T16 sequence (Q9P2E9 whole entry): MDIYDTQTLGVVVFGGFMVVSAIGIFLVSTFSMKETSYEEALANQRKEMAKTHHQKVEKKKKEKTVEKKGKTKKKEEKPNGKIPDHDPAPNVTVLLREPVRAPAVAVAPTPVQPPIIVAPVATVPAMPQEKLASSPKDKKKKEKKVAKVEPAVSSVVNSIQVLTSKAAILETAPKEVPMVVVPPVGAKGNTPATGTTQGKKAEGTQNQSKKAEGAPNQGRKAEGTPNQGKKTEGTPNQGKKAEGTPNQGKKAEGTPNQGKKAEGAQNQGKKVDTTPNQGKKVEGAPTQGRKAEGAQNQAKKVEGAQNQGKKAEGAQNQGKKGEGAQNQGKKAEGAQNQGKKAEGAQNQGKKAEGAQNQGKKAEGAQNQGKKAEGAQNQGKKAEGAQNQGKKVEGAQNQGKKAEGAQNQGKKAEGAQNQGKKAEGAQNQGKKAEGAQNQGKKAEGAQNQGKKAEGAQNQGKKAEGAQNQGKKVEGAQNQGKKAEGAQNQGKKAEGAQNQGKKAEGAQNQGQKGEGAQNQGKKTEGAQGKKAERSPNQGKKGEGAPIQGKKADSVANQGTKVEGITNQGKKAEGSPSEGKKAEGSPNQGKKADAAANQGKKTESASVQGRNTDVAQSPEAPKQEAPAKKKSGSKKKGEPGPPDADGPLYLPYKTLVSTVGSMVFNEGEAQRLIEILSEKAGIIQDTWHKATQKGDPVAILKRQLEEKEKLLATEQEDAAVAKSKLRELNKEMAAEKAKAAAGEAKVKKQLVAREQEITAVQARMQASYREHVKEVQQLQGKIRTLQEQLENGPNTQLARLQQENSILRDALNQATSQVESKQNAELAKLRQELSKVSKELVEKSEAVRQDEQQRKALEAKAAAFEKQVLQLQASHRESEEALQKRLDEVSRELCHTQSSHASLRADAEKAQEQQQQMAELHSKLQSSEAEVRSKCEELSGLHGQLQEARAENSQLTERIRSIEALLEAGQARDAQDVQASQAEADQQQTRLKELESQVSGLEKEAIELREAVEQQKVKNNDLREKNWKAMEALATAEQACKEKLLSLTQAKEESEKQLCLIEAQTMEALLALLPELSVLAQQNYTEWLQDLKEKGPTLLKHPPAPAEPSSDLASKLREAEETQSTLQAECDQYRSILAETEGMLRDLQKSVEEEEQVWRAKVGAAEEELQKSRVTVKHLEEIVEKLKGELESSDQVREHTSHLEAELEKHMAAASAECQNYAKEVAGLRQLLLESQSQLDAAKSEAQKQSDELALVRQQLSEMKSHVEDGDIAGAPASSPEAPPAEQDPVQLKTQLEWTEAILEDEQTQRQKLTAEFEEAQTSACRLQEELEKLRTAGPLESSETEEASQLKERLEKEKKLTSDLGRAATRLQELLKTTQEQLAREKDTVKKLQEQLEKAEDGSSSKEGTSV
Summary of the method: as §1

[17] = target: T17, proteins of U2OS cell lysate (Homo sapiens, UniProt Q9UIA9); conditions: XPO7, Exportin-7
T17 construct: Proteins enriched by c-ponatinib from U2OS cell lysate; endogenous in cells; host or cells: U2OS cell lysate
T17 sequence (Q9UIA9 whole entry): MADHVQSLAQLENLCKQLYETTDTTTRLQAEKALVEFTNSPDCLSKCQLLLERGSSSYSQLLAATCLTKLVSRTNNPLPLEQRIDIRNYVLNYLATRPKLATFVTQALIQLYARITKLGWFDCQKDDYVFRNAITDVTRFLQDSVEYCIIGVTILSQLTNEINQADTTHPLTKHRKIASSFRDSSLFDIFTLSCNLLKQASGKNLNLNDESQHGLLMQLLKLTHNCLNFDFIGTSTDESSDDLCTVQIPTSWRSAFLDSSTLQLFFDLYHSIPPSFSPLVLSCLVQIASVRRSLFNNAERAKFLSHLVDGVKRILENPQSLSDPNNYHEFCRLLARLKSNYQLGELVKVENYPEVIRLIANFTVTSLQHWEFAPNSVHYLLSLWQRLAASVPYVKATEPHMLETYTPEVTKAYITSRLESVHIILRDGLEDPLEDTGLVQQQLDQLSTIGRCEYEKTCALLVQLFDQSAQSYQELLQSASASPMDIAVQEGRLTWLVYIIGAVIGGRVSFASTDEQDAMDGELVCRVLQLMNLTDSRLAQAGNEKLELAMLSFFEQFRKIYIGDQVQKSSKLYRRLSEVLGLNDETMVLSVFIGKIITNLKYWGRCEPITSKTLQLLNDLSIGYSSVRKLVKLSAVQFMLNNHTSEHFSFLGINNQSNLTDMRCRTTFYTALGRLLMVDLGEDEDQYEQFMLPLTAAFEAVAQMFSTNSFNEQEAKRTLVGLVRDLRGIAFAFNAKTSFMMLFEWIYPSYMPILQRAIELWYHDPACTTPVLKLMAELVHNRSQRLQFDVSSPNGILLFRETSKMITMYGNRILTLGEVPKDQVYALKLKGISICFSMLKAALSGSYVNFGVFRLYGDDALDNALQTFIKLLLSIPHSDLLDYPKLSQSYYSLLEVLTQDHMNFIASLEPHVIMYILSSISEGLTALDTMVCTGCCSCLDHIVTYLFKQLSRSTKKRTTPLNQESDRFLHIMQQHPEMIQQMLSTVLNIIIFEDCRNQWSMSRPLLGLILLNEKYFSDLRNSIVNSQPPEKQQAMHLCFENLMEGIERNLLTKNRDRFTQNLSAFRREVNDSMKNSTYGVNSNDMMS
Summary of the method: as §1

[18] = target: T18, proteins of U2OS cell lysate (Homo sapiens, UniProt Q9Y5L0); conditions: TNPO3, Transportin-3
T18 construct: Proteins enriched by c-ponatinib from U2OS cell lysate; endogenous in cells; host or cells: U2OS cell lysate
Summary of the method: as §1

[19] = target: T19, proteins of U2OS cell lysate (Homo sapiens, UniProt P62266); conditions: captured protein RPS23, Rank 181
T19 construct: Proteins enriched by c-ponatinib from U2OS cell lysate; endogenous in cells; host or cells: U2OS cell lysate
Summary of the method: as §1

Compound	Average LFQ PON_WT [1]	Average LFQ PON_WT [2]	Average LFQ PON_WT [3]	Average LFQ PON_WT [4]	Average LFQ PON_WT [5]	Average LFQ PON_WT [6]	Average LFQ PON_WT [7]	Average LFQ PON_WT [8]	Average LFQ PON_WT [9]	Average LFQ PON_WT [10]	Average LFQ PON_WT [11]	Average LFQ PON_WT [12]	Average LFQ PON_WT [13]	Average LFQ PON_WT [14]	Average LFQ PON_WT [15]	Average LFQ PON_WT [16]	Average LFQ PON_WT [17]	Average LFQ PON_WT [18]	Average LFQ intensity [19]
Cc1ccc(C(=O)Nc2ccc(CN3CCN(C)CC3)c(C(F)(F)F)c2)cc1C#Cc1cnc2cccnn12 [PON]	22.0977	20.8234	20.865	26.7182	24.5257	21.0301	20.8592	20.531	23.8341	21.415	23.3948	20.2843	21.0026	19.5713	20.8707	20.1458	20.002	20.3086	
Cc1ccc(C(=O)Nc2ccc(CN3CCN(CCCN)CC3)c(C(F)(F)F)c2)cc1C#Cc1cnc2cccnn12 [c-ponatinib, reference compound]																			22.1736
